Test results reported in paper PMC8272561 (Bioorganic & medicinal chemistry letters, 2021).
Read-outs that look alike come from different tables or passages of the source.

Assays:
WEEV genome replicon [1] = details: read-out: IC50, inhibition of luciferase expression in WEEV replicon assay; cited from earlier work
[2] = tested on: FMV-infected BE(2)-C cells; assay: Antiviral assay in FMV-infected BE; type: cell-based
WEEV genome replicon [3] = assay: organism not typed; type: cell-based; details: for IC50: read-out: IC50, inhibition of luciferase expression in WEEV replicon assay

SMILES | Activity in WEEV replicon assay, in words (WEEV genome replicon [3]) | Loss of potency relative to lead 2 in WEEV replicon assay (WEEV genome replicon [3]) | also measured
O=C(NCCc1ccncc1)C1CCN(C(=O)c2cc3ccccc3n2Cc2ccc(Cl)cc2)CC1 [compound 2] | – | – | IC50 (WEEV genome replicon [1]): 0.53 ± 0.08 µM; Enhancement of infected cell viability ([2]; 25 μM): two-fold enhancement
O=C(c1cc2ccccc2n1Cc1ccc(Cl)cc1)N1CCC(/C=C/CCc2ccncc2)CC1 [compound 17] | lost all activity | – | IC50 (WEEV genome replicon [3]): > 50 µM
O=C(c1cc2ccccc2n1Cc1ccc(Cl)cc1)N1CCC(/C=C\CCc2ccncc2)CC1 [compound 18] | lost all activity | – | IC50 (WEEV genome replicon [3]): > 50 µM
O=C(NCCc1ccncc1)C1=CCN(C(=O)c2cc3ccccc3n2Cc2ccc(Cl)cc2)CC1 [compound 22] | – | ~10 fold | –
CC1(C(=O)NCCc2ccncc2)CCN(C(=O)c2cc3ccccc3n2Cc2ccc(Cl)cc2)CC1 [compound 23] | lost all activity | – | –
O=C(NCCc1ccncc1)[C@H]1[C@@H]2CCN(C(=O)c3cc4ccccc4n3Cc3ccc(Cl)cc3)C[C@@H]21 [compound 26] | – | over 20 fold | –
O=C(NCCc1ccncc1)C1CC2(C1)CN(C(=O)c1cc3ccccc3n1Cc1ccc(Cl)cc1)C2 [compound 28] | – | over 20 fold | –
O=C(NCCc1ccncc1)C1CCCN(C(=O)c2cc3ccccc3n2Cc2ccc(Cl)cc2)CC1 (centres unmarked) [compound 29] | – | – | Improvement in infected cell viability versus negative control ([2]; 5 μM): nearly two-fold improvement
